Experimental data: article PMC3878165 (Bioorganic & Medicinal Chemistry Letters, 2013)

Molecular target: SARS-CoV 3CLpro (Severe acute respiratory syndrome coronavirus, UniProt P0C6U8)
Format: biochemical

CC(=O)Nc1ccc(N(C(=O)Cn2nnc3ccccc32)C(C(=O)NC(C)(C)C)c2ccsc2)cc1 (centres unmarked) [13a]
3CLpro activity in words: moderate micromolar activity

O=C(Nc1ccc(N(Cc2ccsc2)C(=O)Cn2nnc3ccccc32)cc1)C1CCCCC1 [16g]
3CLpro activity in words: weak inhibitor

COc1ncc(-c2ccc(N(Cc3ccsc3)C(=O)Cn3nnc4ccccc43)cc2)cn1 [17e]
3CLpro activity in words: micromolar activity

CC(C)(C)NC(=O)C(c1ccsc1)N(C(=O)Cn1nnc2ccccc21)c1ccc(NC(=O)C(C)(C)C)cc1 (centres unmarked) [13e]
loss in inhibition/activity: three-fold

O=C(Nc1ccc(N(Cc2ccsc2)C(=O)Cn2nnc3ccccc32)cc1)c1ccccc1 [16h]
3CLpro activity in words: lack of activity

CC(C)COC(=O)Nc1ccc(N(C(=O)Cn2nnc3ccccc32)C(C(=O)NC(C)(C)C)c2ccsc2)cc1 (centres unmarked) [13l]
3CLpro activity in words: weak or inactive

CC(C)(C)NC(=O)C(c1ccsc1)N(C(=O)Cn1nnc2ccccc21)c1ccc(NC(=O)C2CCCCC2)cc1 (centres unmarked) [13h]
3CLpro activity in words: loss of inhibition

O=C(Cn1nnc2ccccc21)N(Cc1ccsc1)c1ccc(NCc2ccccc2)cc1 [16k]
3CLpro activity in words: potency comparable to probe ML300

CC(C)(C)NC(=O)C(c1ccsc1)N(C(=O)Cn1nnc2ccccc21)c1ccc(NS(C)(=O)=O)cc1 (centres unmarked) [13b]
loss in inhibition/activity: three-fold

CC(C)(C)NC(=O)C(c1ccsc1)N(C(=O)Cn1nnc2ccccc21)c1ccc(NC(=O)C2CC2)cc1 (centres unmarked) [13f]
3CLpro activity in words: loss of inhibition

CNc1ccc(N(Cc2ccsc2)C(=O)Cn2nnc3ccccc32)cc1 [16j]
3CLpro activity in words: potency comparable to probe ML300
